The values that follow come from patent US10322097B2, “Treatment of subjects with multidrug-resistant cancer” (priority 2015, dated 2019).

Each structure is given as a SMILES string.

The target in one data set is P-gp (Homo sapiens, UniProt P08183). Briefly: Rho123 efflux assay in A549 taxol-resistant lung cancer cells (flow cytometry). Here is the method:
A549 taxol-resistant lung cancer cells were seeded in 6 well-plates at a final concentration of 2×10^5 cells per well and cultured for 24 h at 37° C. in an atmosphere containing 5% CO2. […] Subsequently, 5 mg/mL Rho123 was added to each well and the wells were incubated for another 1 h at 37° C. At the end of the incubation, the accumulation of Rho123 was stopped by washing the cells five times with ice-cold PBS. After cell centrifugation, cell pellets were resuspended in 400 μL PBS. […] All data acquisition and analyses were performed with CellQuest (BD Biosciences, San Jose, Calif., USA) in triplicate in three independent experiments, and the results were shown as the mean of fluorescence intensity.
A549 taxol-resistant lung cancer cells were seeded in 6 well-plates at a final concentration of 2×10^5 cells per well and cultured for 24 h at 37° C. in an atmosphere containing 5% CO2. […] All data acquisition and analyses were performed with CellQuest (BD Biosciences, San Jose, Calif., USA) in triplicate in three independent experiments, and the results were shown as the mean of fluorescence intensity.
(Flow cytometry measures light scatter and fluorescence of single cells or particles in a stream.)

Data set [1] concerns HEK293/ABCB5 kidney cells. Kind of data set: MTT cytotoxicity assay, HEK293/ABCB5. The data set is classed as cell-based. Here is the method: (§1) Cell cultures and cytotoxicity assays have been used. Celastrol was dissolved in DMSO at a final concentration of 100 mmol/L and stored at −20° C. Cytotoxicity was assessed using the 3-(4,5-dimethylthiazol-2-yl)-2,5-diphenyltetrazolium bromide assay. 4000 cells from HEK293 and HEK293/ABCB5 kidney cancer cells or MDA-MB-231 pcDNA and MDA-MB-231/BCRP breast cancer cells were seeded on 96-well plates per well. After overnight pre-incubation, the cells were exposed to different concentrations of celastrol (0.1-10 μmol/L) for 3 days. Subsequently, 10 μL of MTT reagents were added to each well and incubated at 37° C. for 4 hours followed by the addition of 100 μL solubilization buffer (10% SDS in 0.01 mol/L HCl) and overnight incubation. Absorbance at 585 nm was determined from each well the next day. The percentage of cell viability was calculated using the following formula: Cell viability (%)=Cells number treated/Cells number DMSO control×100. Data were obtained from three independent experiments.
(In general: Tetrazolium dyes change colour on reduction, which living cells bring about.)

In data set [2] the test system is MDA-MB-231 pcDNA breast cancer cells. Kind of data set: MTT cytotoxicity assay, MDA-MB-231 pcDNA. The data set is classed as cell-based. Particulars: Homo sapiens, MDA-MB-231, 72 h, 3 days. Here is the method: as §1
Data set [3] has as its system HCT116 p53+/+ colon cancer cells. Briefly: MTT cytotoxicity assay, HCT116 p53+/+. Particulars: Homo sapiens, HCT-116, 72 h, read-out: IC50 HCT116 p53+/+ colon cancer cells. Format: cell-based. As for the experimental part: Cell cultures and cytotoxicity assays have been used. Celastrol was dissolved in DMSO at a final concentration of 100 mmol/L and stored at −20° C. Cytotoxicity was assessed using the 3-(4,5-dimethylthiazol-2-yl)-2,5-diphenyltetrazolium bromide assay. 4000 cells from HCT116 p53^+/+ or p53^−/− colon cancer cells and DLD-1 Bax-Bak^+/+ or Bax-Bak^−/− colon cancer cells were seeded on 96-well plates per well. […] Subsequently, 10 μL of MTT reagents were added to each well and incubated at 37° C. for 4 hours followed by the addition of 100 μL solubilization buffer (10% SDS in 0.01 mol/L HCl) and overnight incubation. […] The percentage of cell viability was calculated using the following formula: Cell viability (%)=Cells number treated/Cells number DMSO control×100. Data were obtained from three independent experiments.

For data set [4], the system named is A549 (Lung) taxol resistant cancer cells. Kind of data set: MTT cytotoxicity assay, A549 taxol resistant. Format: cell-based, human. As for the experimental part: as §1, with “from A549 (lung), A2780 (ovary), HCT-8 (colon)” for “from HEK293”, “and MCF-7 (breast)” for “and HEK293/ABCB5 kidney cancer cells or MDA-MB-231 pcDNA and MDA-MB-231/BCRP breast”, “celastrol (0.039-100” for “celastrol (0.1-10”, “μmol/L) or taxol” for “μmol/L)”, “reagents was” for “reagents were”

Data set [5] relates to MCF-7 (Breast) doxorubicin resistant cancer cells. Briefly: MTT cytotoxicity assay, MCF-7 doxorubicin resistant. The data set is classed as cell-based, human. As for the experimental part:
as §1, with “MCF-7 doxorubicin sensitive/resistant breast” for “HEK293 and HEK293/ABCB5 kidney”, “CEM doxorubicin sensitive/resistant leukemia” for “MDA-MB-231 pcDNA and MDA-MB-231/BCRP breast cancer”, “(0.039-100” for “(0.1-10”, “μmol/L) or doxorubicin” for “μmol/L)”

In data set [6] the test system is CEM-ADR5000 (Leukemia) doxorubicin resistant cells. Briefly: MTT cytotoxicity assay, CEM-ADR5000. The data set is classed as cell-based, human. Here is the method: as §1, with “MCF-7 doxorubicin sensitive/resistant breast” for “HEK293 and HEK293/ABCB5 kidney”, “CEM doxorubicin sensitive/resistant leukemia” for “MDA-MB-231 pcDNA and MDA-MB-231/BCRP breast cancer”, “(0.039-100” for “(0.1-10”, “μmol/L) or doxorubicin” for “μmol/L)”

Chain of P-gp (P08183 whole entry): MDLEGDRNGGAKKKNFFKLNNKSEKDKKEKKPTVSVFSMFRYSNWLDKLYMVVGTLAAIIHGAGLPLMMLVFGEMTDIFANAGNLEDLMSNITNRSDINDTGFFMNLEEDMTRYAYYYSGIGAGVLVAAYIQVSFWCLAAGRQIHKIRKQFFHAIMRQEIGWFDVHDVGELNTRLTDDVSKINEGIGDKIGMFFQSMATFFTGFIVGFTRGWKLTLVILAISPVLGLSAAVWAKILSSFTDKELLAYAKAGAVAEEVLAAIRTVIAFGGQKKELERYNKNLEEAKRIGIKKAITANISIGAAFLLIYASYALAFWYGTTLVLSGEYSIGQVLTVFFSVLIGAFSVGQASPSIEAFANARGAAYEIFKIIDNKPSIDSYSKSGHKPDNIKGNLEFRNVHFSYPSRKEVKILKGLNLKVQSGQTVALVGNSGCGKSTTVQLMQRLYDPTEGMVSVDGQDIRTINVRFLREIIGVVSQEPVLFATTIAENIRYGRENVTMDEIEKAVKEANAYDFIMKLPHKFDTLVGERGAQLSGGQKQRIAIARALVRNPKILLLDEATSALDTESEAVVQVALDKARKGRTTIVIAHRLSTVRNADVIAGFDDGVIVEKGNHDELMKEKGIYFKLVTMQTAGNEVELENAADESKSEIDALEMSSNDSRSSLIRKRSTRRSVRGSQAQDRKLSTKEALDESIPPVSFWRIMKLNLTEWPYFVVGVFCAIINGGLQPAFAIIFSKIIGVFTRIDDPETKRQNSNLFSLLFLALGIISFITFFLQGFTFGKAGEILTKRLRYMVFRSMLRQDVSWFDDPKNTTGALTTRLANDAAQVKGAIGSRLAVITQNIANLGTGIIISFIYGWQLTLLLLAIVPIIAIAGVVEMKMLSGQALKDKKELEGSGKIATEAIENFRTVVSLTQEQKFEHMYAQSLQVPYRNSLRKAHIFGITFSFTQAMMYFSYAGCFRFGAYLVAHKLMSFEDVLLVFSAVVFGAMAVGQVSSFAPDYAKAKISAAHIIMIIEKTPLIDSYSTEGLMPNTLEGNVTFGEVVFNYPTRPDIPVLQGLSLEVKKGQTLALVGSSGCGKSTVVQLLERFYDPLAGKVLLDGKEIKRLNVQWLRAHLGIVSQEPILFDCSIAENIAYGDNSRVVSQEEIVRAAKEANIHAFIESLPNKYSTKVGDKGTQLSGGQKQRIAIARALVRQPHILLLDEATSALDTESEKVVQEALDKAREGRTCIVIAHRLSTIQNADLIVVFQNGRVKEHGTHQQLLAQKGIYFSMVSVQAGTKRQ

As to `CC1=C(O)C(=O)C=C2C1=CC=C1[C@@]2(C)CC[C@@]2(C)[C@@H]3C[C@](C)(C(=O)O)CC[C@]3(C)CC[C@]12C` [Celastrol, celastrol], the “P-gp activity / Rho123 accumulation (Example 2)” value on P-gp is “inhibited the P-gp activity dose-dependently”. Besides, the “P-gp activity / Rho123 accumulation (Example 9)” value at P-gp is listed as “inhibited the P-gp activity dose-dependently”. Also, the IC50 in data set [1] (Homo sapiens, HEK293, 72 h, MTT, 3 days) turned out to be 3450 nM; in data set [2], 4830 nM; in data set [3], 831 nM; in data set [4] (Homo sapiens, A549, 72 h, read-out: IC50 A549 (Lung) (Taxol resistant)), 1000 nM; in data set [5] (Homo sapiens, MCF7, 72 h, read-out: IC50 MCF-7 (Breast) (Doxorubicin resistant)), 950 nM; in data set [6] (Homo sapiens, 72 h, MTT, 3 days), 108 nM. For the same compound, the “Resistant Factor” value in data set [1] (IC50 HEK293/ABCB5 divided by IC50 HEK293) is on record as 1.12; in data set [4] (A549 taxol resistant versus taxol sensitive), 0.42; in data set [5] (MCF-7 doxorubicin resistant versus doxorubicin sensitive), 0.84; in data set [6] (CEM-ADR5000 versus CCRF-CEM), 0.033.
